Where “and” joins values, the source holds several entries; their conditions need not be identical. Identical values can stand only once. Like-named read-outs stand apart in the source and are kept apart here.
Tests used:
[1] = Turbidimetric solubility assay; conditions: for solubility at 2 h: kinetic from dmso stock
Method: A single phosphate buffered saline (PBS) tablet (Sigma Aldrich) was dissolved in 200 mL of distilled water (dH2O) (25 °C) to obtain a PBS solution with 0.01 M phosphate buffer, 0.14 M NaCl and 0.003 M KCl.
Stock solutions of the compounds to be tested were prepared in DMSO at a concentration of 10 mM and filtered through syringe filters. Serial dilution of the stock solutions with DMSO was then carried out in a preparatory (prep) 96-well plate giving concentrations between 0.00 and 10.0 mM (0.00, 0.25, 0.50, 1.0, 2.0, 4.0, 8.0 and 10 mM). The solutions were then further diluted into 96-well assay plates containing DMSO, PBS or HEPES buffer by pipetting 4.00 μL of solution from the prep plate to the Assay plate containing 196 μL of DMSO or buffer, giving final concentrations between 0.00 and 200 μM (0.00, 5.00, 10.0, 20.0, 40.0, 80.0, 160 and 200 μM). The assay plates were incubated at 25.0 or 37.0 °C for two hours before their UV-vis absorbance was read at 620 nm with a SPECTROstar Nano microplate reader spectrophotometer. Blank readings were used to gain corrected readings by subtracting them from obtained absorbances for each compound concentration.

[2] = Aqueous stability studies (UV-vis monitoring, ESI-MS follow-up); assay type: physicochemical; conditions: for Change of UV-vis spectrum over time (aqueous stability): PBS pH 7.4, HEPES pH 7.0 and acetate buffer pH 4.6, 37 °C, 18 hours, 50 μM
Method: The stability of complexes 14–17 in an aqueous environment was investigated. The stability experiments were performed in PBS (pH 7.4) and HEPES (pH 7.0) buffers, as well as in acidic acetate buffer (pH 4.6), by monitoring the UV-vis spectra of the compounds at 37 °C over an 18-hour period.
To further investigate the stability of 14, the PBS, HEPES and acetate buffer solutions were evaporated to dryness, and then analysed using electrospray ionisation mass spectrometry in the positive ionisation mode.
PBS and HEPES buffers were prepared as described above. An acetate buffer with a concentration of […] and a pH of 4.60 was prepared by dissolving 5.40 g (65.83 mmol) of sodium acetate in 50 mL of dH2O. The resulting solution was then titrated to a pH of 4.60 with glacial acetic acid and made up to 100 mL with dH2O.
1 mM stock solutions of the synthesised target compounds in MeOH were prepared. 1.90 mL of buffer (PBS, HEPES or acetate buffer) was pipetted into cuvettes followed by the addition 100 μL of test compound stock solutions, diluting them to a final concentration of 50 μM. The cuvettes were then stoppered, inverted to mix the solution, and placed in an Agilent Cary 3500 UV-vis spectrophotometer as fast as possible. Blank solutions in matched cuvettes were also prepared by adding 100 μL of MeOH to 1.9 mL of buffer. The solutions in all the cuvettes were stirred at 400 rpm ensure proper mixing. UV spectra were then recoded every 5 minutes for 18 hours with a spectral width of 200–1100 nm to monitor the stability of the test compounds.

Cyclic voltammetry = assay type: physicochemical
Source text: Ferrocene is known to undergo reversible oxidation and reduction, cycling between its 3^+ ferrocenium and the 2^+ ferrocene (Fc) states.[49,50] This redox behaviour leads to the generation of reactive oxygen species (ROS) through Fenton like reactions, which can in turn lead to parasite death.[51–53] Cyclic voltammetry was used to determine if the synthesised ferrocenyl derivatives had the potential to have an impact on the redox status of the parasite cells. Two different scan rates (25 and 90 mV s^−1) were used to ensure the reliability of the results, compared to ferrocene alone.

[3] = tested on: RhΔKu80:mNeonGreen strain of T. gondii; test: microbe, parasite or virus in culture; assay type: cell-based, Toxoplasma gondii
Method: Growth inhibition assays were carried out using the RhΔKu80:mNeonGreen strain of T. gondii, which expresses the mNeonGreen fluorescent protein.[56] Parasite growth inhibition was determined by measuring the fluorescence emission of parasite growth in increasing concentrations of compounds of interest.
T. gondii ΔKu80:mNeon tachyzoites were grown in human foreskin fibroblasts (HFFs) with Dulbecco's modified Eagle's medium (DMEM) supplemented with 3% heat inactivated foetal bovine serum (D3) as the culturing medium. Cells and parasites were maintained at 37 °C and 5% carbon dioxide (CO2).
EC50s were calculated as previously described.[56] Briefly, T. gondii ΔKu80:mNeon parasites were counted by haemocytometer and diluted to 25 000 parasites per mL in 40 mL of D3 media, to give an infection of 5000 parasites per well. The media from a black clear bottomed 96 well plate containing HFFs was then aspirated. 200 μL of uninfected D3 media was added to the top and bottom rows of wells (A and H) to serve as blanks. 200 μL of T. gondii containing D3 media was then added to the remaining wells. The parasites were allowed 2 hours to invade host cells, after which test compounds were added.
The media from the infected 96 well plates was then aspirated and 100 μL of D3 media added to each well, excluding column 12. The first 4 wells of column 12 were filled with 300 μL of drug supplemented D3 media, while the next 4 wells were filled with 300 μL of D3 media supplemented with a different drug. The drug supplemented D3 media was then serially diluted 1 : 3 across the plate, stopping at column 2 and disposing of the media, leaving all wells with 100 μL of media. Finally, the plates were closed and incubated at 37 °C with 5% CO2 for 4 days. After 4 days the fluorescence of each well on the plates was read at 594 nm emission using a PHERAstar FS microplate reader. Graphpad Prism 9 software was used to plot dose–response and determine inhibition of parasite growth.

T. gondii parasites = test: Determination of ROS formation by FACS (CellROX deep red); assay type: cell-based, Toxoplasma gondii; conditions: 66 μM, 18 hours, compared with untreated parasites
Method: Once it had been established that two of the synthesised ferrocenyl benzimidazole derivatives were biologically active, their potential mode of action was explored. Given the presence of the ferrocenyl moiety, and the cyclic voltammetry results, it was of interest to investigate whether the compounds induce ROS, which may provide an explanation for their anti-parasitic activity. Thus, cells heavily infected with parasites were incubated with target compounds for 18 hours, before isolating the parasites and staining them with CellRox deep red reagent. CellRox is an oxidation sensitive dye which is non-fluorescent in its reduced state but fluoresces bright red at 665 nm upon being oxidised by ROS. FACS was then used to quantify CellROX parasite florescence.[56] Parasites were incubated with ferrocene carboxylic acid (FcCOOH), and untreated parasites were used as controls.
6 cm dishes of host cells heavily infected with T. gondii were untreated or treated with 66 μM (second highest concentration used in growth inhibition assays) of test compounds for 18 hours. The dishes were then scratched and syringed, before filtering the solution into 10 mL falcon tubes to remove cell debris. The tubes were spun down for 10 minutes at 1500 rpm. The media was then removed from the tubes, and the pellet resuspended in 200 μL of PBS buffer. For each drug, 100 μL of the resuspended pellet was then placed into 2 FACS tubes, one which would then be stained with CellROX dye, and the other 100 μL of PBS added to act as an unstained control. A 1 : 125 dilution of CellROX stock solution was performed, and 100 μL of this solution added to the FACS tubes needing staining. Stained tubes were incubated at 37 °C for at least 15 min before analysis on a BD Celesta flow cytometer. Data was obtained using FACSDiva software with parasites being gated on forward scatter, side scatter and green fluorescence. FlowJo v10 software was used to plot the geometric mean of CellRox fluorescence from at least 5000 parasites on the Cy7 channel.

HEK293T cell line = conditions: 25 μM, MTT 48 hours
Method: Human prostatic epithelial cells (PNT1A) were cultured in Rosewell Park Memorial Institute (RPMI) media supplemented with 10% heat inactivated FBS. Both cell lines were incubated at 37 °C with 5% CO2. Both cell lines were obtained from ATCC.
The cells were allowed to recover overnight before the addition of compounds.
Stock solutions of the test compounds in DMSO were prepared and serially diluted in DMSO in a 96 well plate. […] 10 μL of the test compounds in media was then pipetted into the plates containing cells in triplicate. The cells were then incubated with the test compounds for 48 hours. After incubation, 10 μL of previously prepared MTT reagent was added to each well followed by incubation of the plates for 4 hours. 100 μL of solubilising agent was then pipetted into each well, and the plates incubated overnight. After overnight incubation the plates were read using a BioTek SYNERGY HTX multimode plate reader at 595 nm. Graphpad Prism 9 software was used to plot dose–response and determine cell viability.

[4] = T. gondii ΔKu80:mNeon in HFFs, 4 days, highest concentration 100 μM, NA = not active at the maximum tested concentration, three biological replicates in triplicate, read-out: EC50
[5] = T. gondii ΔKu80:mNeon in HFFs, 4 days, highest concentration 100 μM, NA = not active at the maximum tested concentration, three biological replicates in triplicate

O=C(NCCn1c(-c2ccccc2)nc2ccccc21)[c-]1cccc1.[Fe+2].c1cc[cH-]c1 [Compound 14]
Solubility range ([1]; HEPES (pH 7.0), 25 °C): 20-40 µM and 9-18 µg/mL | Solubility class ([1]; HEPES (pH 7.0), 37 °C): poor (solubility <10 μg mL^−1 are considered to have poor solubility) | Solubility range ([1]; HEPES (pH 7.0), 37 °C): 5-10 µM and 2–4 µg/mL | Solubility range ([1]; PBS (pH7.4), 25 °C): 10-20 µM and 4-9 µg/mL | Solubility range ([1]; PBS (pH7.4), 37 °C): 10-20 µM and 4-9 µg/mL | Change of UV-vis spectrum over time (aqueous stability) [2]: showed reduced intensity over time | Stability in buffer by ESI-MS of evaporated buffer solutions ([2]; PBS, HEPES and acetate buffer, molecular ion peak present): remained intact and was stable | E 1/2 (Cyclic voltammetry; Run1, scan rate 25 mV s^−1): 638 mV | ΔEp (Cyclic voltammetry; Run1, scan rate 25 mV s^−1): 89 mV | E 1/2 (Cyclic voltammetry; Run2, scan rate 90 mV s^−1): 641 mV | ΔEp (Cyclic voltammetry; Run2, scan rate 90 mV s^−1): 75 mV

O=C(NCCn1cnc2ccccc21)[c-]1cccc1.[Fe+2].c1cc[cH-]c1 [Compound 15]
Solubility range ([1]; HEPES (pH 7.0), 25 °C): 10-20 µM and 4-7 µg/mL | Solubility class ([1]; HEPES (pH 7.0), 37 °C): moderate (a solubility of 10–60 μg mL^−1 is considered moderate) | Solubility range ([1]; HEPES (pH 7.0), 37 °C): 20-40 µM and 7–15 µg/mL | Solubility range ([1]; PBS (pH7.4), 25 °C): 10-20 µM and 4-7 µg/mL | Solubility range ([1]; PBS (pH7.4), 37 °C): 10-20 µM and 4-7 µg/mL | Change of UV-vis spectrum over time (aqueous stability) [2]: remained unchanged | E 1/2 (Cyclic voltammetry; Run1, scan rate 25 mV s^−1): 653 mV | ΔEp (Cyclic voltammetry; Run1, scan rate 25 mV s^−1): 105 mV | E 1/2 (Cyclic voltammetry; Run2, scan rate 90 mV s^−1): 643 mV | ΔEp (Cyclic voltammetry; Run2, scan rate 90 mV s^−1): 78 mV | EC50 [3, 4]: 17.9 µM | ROS formation in treated parasites (CellRox red fluorescence) (T. gondii parasites): triggered the formation of ROS | Cell survival / % cell viability (HEK293T cell line): 50%

O=C(NCCn1cnc2ncccc21)[c-]1cccc1.[Fe+2].c1cc[cH-]c1 [Compound 16]
Solubility range ([1]; HEPES (pH 7.0), 25 °C): 20-40 µM and 7-15 µg/mL | Solubility class ([1]; HEPES (pH 7.0), 37 °C): poor (solubility <10 μg mL^−1 are considered to have poor solubility) | Solubility range ([1]; HEPES (pH 7.0), 37 °C): 10-20 µM and 4–7 µg/mL | Solubility range ([1]; PBS (pH7.4), 25 °C): 10-20 µM and 4-7 µg/mL | Solubility range ([1]; PBS (pH7.4), 37 °C): 10-20 µM and 4-7 µg/mL | Change of UV-vis spectrum over time (aqueous stability) [2]: remained unchanged | E 1/2 (Cyclic voltammetry; Run1, scan rate 25 mV s^−1): 632 mV | ΔEp (Cyclic voltammetry; Run1, scan rate 25 mV s^−1): 99 mV | E 1/2 (Cyclic voltammetry; Run2, scan rate 90 mV s^−1): 642 mV | ΔEp (Cyclic voltammetry; Run2, scan rate 90 mV s^−1): 69 mV | ROS formation in treated parasites (CellRox red fluorescence) (T. gondii parasites): not

[Fe+2].c1cc[cH-]c1.c1cc[cH-]c1 [Fc, ferrocene, reference compound]
E 1/2 (Cyclic voltammetry; Run1, scan rate 25 mV s^−1): 451 mV | ΔEp (Cyclic voltammetry; Run1, scan rate 25 mV s^−1): 108 mV | E 1/2 (Cyclic voltammetry; Run2, scan rate 90 mV s^−1): 453 mV | ΔEp (Cyclic voltammetry; Run2, scan rate 90 mV s^−1): 83 mV

O=C(Cl)[c-]1cccc1.[Fe+2].c1cc[cH-]c1 [FcCOCl]
EC50 [3, 5]: no activity

O=C(O)[c-]1cccc1.[Fe+2].c1cc[cH-]c1 [FcCOOH, ferrocene carboxylic acid, reference compound]
E 1/2 (Cyclic voltammetry; Run1, scan rate 25 mV s^−1): 688 mV | ΔEp (Cyclic voltammetry; Run1, scan rate 25 mV s^−1): 89 mV | E 1/2 (Cyclic voltammetry; Run2, scan rate 90 mV s^−1): 689 mV | ΔEp (Cyclic voltammetry; Run2, scan rate 90 mV s^−1): 71 mV | EC50 [3, 5]: no activity | ROS formation in treated parasites (CellRox red fluorescence) (T. gondii parasites): only showed slightly more ROS present than untreated parasites

CCc1nc(N)nc(N)c1-c1ccc(Cl)cc1 [Pyrimethamine]
EC50 [3, 4]: 13.8 µM | EC50 ([3]; Toxoplasma gondii, 96 h, T. gondii ΔKu80:mNeon in HFFs, 4 days, highest concentration 100 μM, NA = not active at the maximum tested concentration, three biological replicates in triplicate, read-out: EC50): 13.8 µM

COC(=O)[C@H]1[C@H]2C[C@@H]3c4[nH]c5cc(OC)ccc5c4CCN3C[C@H]2C[C@@H](OC(=O)c2cc(OC)c(OC)c(OC)c2)[C@@H]1OC [Reserpine, reference compound]
solubility at 2 h ([1]; HEPES buffer, 25 °C, pH 7, aqueous buffer): < 5 µM and < 3 µg/mL | solubility at 2 h ([1]; HEPES buffer, 37 °C, pH 7, aqueous buffer): < 5 µM and < 3 µg/mL | solubility at 2 h ([1]; PBS buffer, 25 °C, pH 7.4, aqueous buffer): < 5 µM and < 3 µg/mL | solubility at 2 h ([1]; PBS buffer, 37 °C, pH 7.4, aqueous buffer): < 5 µM and < 3 µg/mL

Nc1ccc(S(=O)(=O)Nc2ncccn2)cc1 [Sulfadiazine]
EC50 ([3]; Toxoplasma gondii, 96 h): 2.56 µM
